Source: PubChem BioAssay (NCI)
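Protocol summary: plate cells (96-well), add compound at 5 concentrations, incubate 48 h, interpolate endpoints linearly. At the GI50, growth is halved. At the TGI there is no net growth.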

What was measured:
Experiment in all cases: DTP human tumour cell line panel, 48 h
HOP-62 NSCLC = system: HOP-62 NSCLC
CAKI-1 renal = system: CAKI-1 renal
SK-MEL-5 melanoma = system: SK-MEL-5 melanoma
NCI/ADR-RES ovarian = system: NCI/ADR-RES ovarian
SF-539 CNS = system: SF-539 CNS
HOP-92 NSCLC = system: HOP-92 NSCLC
786-0 renal = system: 786-0 renal
EKVX NSCLC = system: EKVX NSCLC
NCI-H226 lung = system: NCI-H226 lung
KM12 colon = system: KM12 colon
NCI-H460 lung = system: NCI-H460 lung
A498 renal = system: A498 renal
SW-620 colon = system: SW-620 colon
TK-10 renal = system: TK-10 renal
LOX IMVI melanoma = system: LOX IMVI melanoma
A549 NSCLC = system: A549 NSCLC
NCI-H23 lung = system: NCI-H23 lung
SF-295 CNS = system: SF-295 CNS
IGROV1 ovarian = system: IGROV1 ovarian
SF-268 CNS = system: SF-268 CNS
DU-145 prostate = system: DU-145 prostate
HCT-15 colon = system: HCT-15 colon
HL-60(TB) leukemia = system: HL-60(TB) leukemia
HT29 colon = system: HT29 colon
M14 melanoma = system: M14 melanoma
RXF 393 renal = system: RXF 393 renal
K-562 leukemia = system: K-562 leukemia
ACHN renal = system: ACHN renal
SN12C renal = system: SN12C renal
MCF7 breast = system: MCF7 breast
CCRF-CEM leukemia = system: CCRF-CEM leukemia
SR leukemia = system: SR leukemia
MALME-3M melanoma = system: MALME-3M melanoma
SNB-19 CNS = system: SNB-19 CNS
SK-MEL-2 melanoma = system: SK-MEL-2 melanoma
T-47D breast = system: T-47D breast
PC-3 prostate = system: PC-3 prostate
OVCAR-4 ovarian = system: OVCAR-4 ovarian
UACC-62 melanoma = system: UACC-62 melanoma
HCC-2998 colon = system: HCC-2998 colon
MDA-MB-435 = system: MDA-MB-435
UO-31 renal = system: UO-31 renal
HCT-116 colon = system: HCT-116 colon
OVCAR-5 ovarian = system: OVCAR-5 ovarian
U251 CNS = system: U251 CNS
OVCAR-3 ovarian = system: OVCAR-3 ovarian
SK-MEL-28 melanoma = system: SK-MEL-28 melanoma
MDA-MB-468 breast = system: MDA-MB-468 breast
UACC-257 melanoma = system: UACC-257 melanoma
SK-OV-3 ovarian = system: SK-OV-3 ovarian
SNB-75 CNS = system: SNB-75 CNS
NCI-H522 lung = system: NCI-H522 lung
MOLT-4 leukemia = system: MOLT-4 leukemia
MDA-MB-231 breast = system: MDA-MB-231 breast
COLO 205 colon = system: COLO 205 colon
RPMI-8226 leukemia = system: RPMI-8226 leukemia
HS 578T breast = system: HS 578T breast
BT-549 breast = system: BT-549 breast
OVCAR-8 ovarian = system: OVCAR-8 ovarian

## COc1ccc(-c2cc(-c3cc(C(C)C)c(O)cc3C)nn2-c2ccc(S(N)(=O)=O)cc2)cc1
HOP-62 NSCLC
  GI50: 10.7 µM
  TGI: 23.9 µM
CAKI-1 renal
  GI50: 5.59 µM
  TGI: 19.2 µM
SK-MEL-5 melanoma
  GI50: 11.1 µM
  TGI: 23.3 µM
NCI/ADR-RES ovarian
  GI50: 3.06 µM
  TGI: 11.4 µM
SF-539 CNS
  GI50: 3.63 µM
  TGI: 13.3 µM
HOP-92 NSCLC
  GI50: 7.18 µM
  TGI: 21.5 µM
786-0 renal
  GI50: 12.2 µM
  TGI: 25 µM
EKVX NSCLC
  GI50: 10.3 µM
  TGI: 21.9 µM
NCI-H226 lung
  GI50: 16.8 µM
  TGI: 38.8 µM
KM12 colon
  GI50: 3.76 µM
  TGI: 14.6 µM
NCI-H460 lung
  GI50: 8.42 µM
  TGI: 22 µM
A498 renal
  GI50: 13.9 µM
  TGI: 27.8 µM
SW-620 colon
  GI50: 6.44 µM
  TGI: 20.4 µM
TK-10 renal
  GI50: 15 µM
  TGI: 28.4 µM
LOX IMVI melanoma
  GI50: 5.47 µM
  TGI: 18.1 µM
A549 NSCLC
  GI50: 6.2 µM
  TGI: 20.6 µM
NCI-H23 lung
  GI50: 10.5 µM
  TGI: 23 µM
SF-295 CNS
  GI50: 10.9 µM
  TGI: 22.8 µM
IGROV1 ovarian
  GI50: 13.4 µM
  TGI: 26.5 µM
SF-268 CNS
  GI50: 12.9 µM
  TGI: 28.6 µM
DU-145 prostate
  GI50: 7.31 µM
  TGI: 19.8 µM
HCT-15 colon
  GI50: 3.69 µM
  TGI: 14.5 µM
HL-60(TB) leukemia
  GI50: 3.53 µM
  TGI: 19.8 µM
HT29 colon
  GI50: 16.2 µM
  TGI: 30.2 µM
M14 melanoma
  GI50: 11.3 µM
  TGI: 25.1 µM
RXF 393 renal
  GI50: 5.76 µM
  TGI: 20.7 µM
K-562 leukemia
  GI50: 2.82 µM
  TGI: 18 µM
ACHN renal
  GI50: 11.7 µM
  TGI: 23.9 µM
SN12C renal
  GI50: 12 µM
  TGI: 25.1 µM
MCF7 breast
  GI50: 4.89 µM
  TGI: 20 µM
CCRF-CEM leukemia
  GI50: 3.43 µM
  TGI: 26.3 µM
SR leukemia
  GI50: 1.91 µM
  TGI: 15.1 µM
MALME-3M melanoma
  GI50: 11.8 µM
  TGI: 24.3 µM
SNB-19 CNS
  GI50: 12.5 µM
  TGI: 25 µM
SK-MEL-2 melanoma
  GI50: 13.7 µM
  TGI: 26.9 µM
T-47D breast
  GI50: 4.32 µM
  TGI: 21.3 µM
PC-3 prostate
  GI50: 10.3 µM
  TGI: 24.7 µM
OVCAR-4 ovarian
  GI50: 13.6 µM
  TGI: 31 µM
UACC-62 melanoma
  GI50: 10.2 µM
  TGI: 22.1 µM
HCC-2998 colon
  GI50: 11.4 µM
  TGI: 23.6 µM
MDA-MB-435
  GI50: 2.22 µM
  TGI: 4.84 µM
UO-31 renal
  GI50: 7.83 µM
  TGI: 20.6 µM
HCT-116 colon
  GI50: 6.17 µM
  TGI: 21.3 µM
OVCAR-5 ovarian
  GI50: 16.3 µM
  TGI: 29.8 µM
U251 CNS
  GI50: 4.49 µM
  TGI: 16.5 µM
OVCAR-3 ovarian
  GI50: 5.16 µM
  TGI: 17 µM
SK-MEL-28 melanoma
  GI50: 13 µM
  TGI: 25.7 µM
MDA-MB-468 breast
  GI50: 2.07 µM
  TGI: 5.71 µM
UACC-257 melanoma
  GI50: 12.7 µM
  TGI: 25.7 µM
SK-OV-3 ovarian
  GI50: 13.8 µM
  TGI: 27.3 µM
SNB-75 CNS
  GI50: 6.08 µM
  TGI: 18.6 µM
NCI-H522 lung
  GI50: 3.15 µM
  TGI: 13.7 µM
MOLT-4 leukemia
  GI50: 2.88 µM
  TGI: 8.39 µM
MDA-MB-231 breast
  GI50: 7.99 µM
  TGI: 21 µM
COLO 205 colon
  GI50: 18.7 µM
  TGI: 34.1 µM
RPMI-8226 leukemia
  GI50: 4.83 µM
  TGI: 32.8 µM
HS 578T breast
  GI50: 11.9 µM
  TGI: 38.6 µM
BT-549 breast
  GI50: 3.29 µM
  TGI: 13.2 µM
OVCAR-8 ovarian
  GI50: 8.17 µM
  TGI: 23.2 µM
